Test results from patent publication US20240376056A1, “PHENYL ACETAMIDE BASED IL-17A MODULATORS AND USES THEREOF” (DiCE Alpha, Inc., priority 2021, published 2024).

Molecular target: T1, IL-17A/A (Homo sapiens, UniProt Q16552)
T1 construct: purchased Genscript Z03228
T1 sequence (Q16552 24-155): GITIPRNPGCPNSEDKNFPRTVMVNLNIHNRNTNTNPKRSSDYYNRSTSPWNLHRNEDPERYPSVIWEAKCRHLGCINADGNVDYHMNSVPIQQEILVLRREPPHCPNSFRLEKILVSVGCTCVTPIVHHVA
Experiment: HEK-Blue IL-17A/A inhibition assay (SEAP reporter)
Format: cell-based
Details: HEK-Blue cells (HEK 293 expressing IL-17RA, IL-17RC, Act1); IL-17A/A stimulation; 20 hours; SEAP read at A630; 4-parameter fit
Experimental: The HEK-Blue #NC108637 […]. Cells were grown and prepared for assays according to the manufacturer's instructions. This cell line consists of HEK 293 cells that were designed to expressed IL-17R^A, IL-17RC, and the ActI adapter molecule, the combination of which. when stimulated by IL-17A/A activates a NFtcB promoter and drives expression of a recombinant Secreted Alkaline Phosphatase (SEAP) geneprotein. Media from the cells is then added to a development reagent (Quanti-Blue Substrate, Fisher #NC971 1613), and read at A630.
Compounds were titrated in DMSO. with a top final compound concentration of 10 uM, 1 uM, or 0.3 uM, and added to the cells immediately before adding IL-17A/A (Genscript #Z03228). The cells, compound, and IL-17A/A were then incubated for 20 hours before media was removed for SEAP analysis. The resulting inhibition curve was then analyzed using Graphpad Prism 7.0, and IC50 values were determined using a 4-parameter nonlinear fit. DMSO was added to a universal final concentration of 0.1% to optimze background.

`CC(C)n1nccc1C(=O)N[C@H](C(=O)Nc1ccc([C@H](C)C(=O)NC2(C(F)(F)F)COC2)cc1F)C(C1CC1)C1CC1` [Compound 43, N-((S)-1.1-dicyclopropyl-3-((2-fluoro-4-((S)-1-oxo-1-((3-(trifluoromethyl)oxetan-3-yl)amino)propan-2-yl)phenyl)amino)-3-oxopropan-2-yl)-1-isopropyl-1H-pyrazole-5-carboxamide] was tested, and the IC50 was > 1000 nM.

In the case of `CC(C)n1nccc1C(=O)N[C@H](C(=O)Nc1ccc([C@H](C)C(=O)NC(Cc2ccccn2)C(F)(F)F)cc1F)C(C1CC1)C1CC1` (stereo partly drawn) [Compound 27, N-((2S)-1,1-dicyclopropyl-3-((2-fluoro-4-((2S)-1-oxo-1-((1,1,1-trifluoro-3-(pyridin-2-yl)propan-2-yl)amino)propan-2-yl)phenyl)amino)-3-oxopropan-2-yl)-1-isopropyl-1H-pyrazole-5-carboxamide], the IC50 is reported as > 1000 nM.

With `CCn1nccc1C(=O)N[C@H](C(=O)Nc1ccc(C(COC)C(=O)N(C)CC(F)(F)F)cc1F)C1CCCCCC1` (single isomer, unassigned) [Compound 102, N—((I S)-1-cycloheptyl-2-((2-fluoro-4-(3-methoxy-1-(methyl(2,2,2-trifluoroethyl)amino)-1-oxopropan-2-yl)phenyl)amino)-2-oxoethyl)-1-ethyl-1H-pyrazole-5-carboxamide] the IC50 was > 1000 nM.

For `CC(C)n1nccc1C(=O)N[C@H](C(=O)Nc1ccc(C(CN2CCOCC2)C(=O)NCC(F)(F)F)cc1F)C(C1CC1)C1CC1` (single isomer, unassigned) [Compound 130], the IC50 was > 1000 nM.

In the case of `CC(C)n1nccc1C(=O)N[C@H](C(=O)Nc1ccc(C(N)C(=O)NCC(F)(F)F)cc1F)C(C1CC1)C1CC1` (single isomer, unassigned) [Compound 189], the IC50 is reported as > 1000 nM.

`CC(C)n1nccc1C(=O)N[C@H](C(=O)Nc1cc(CN(C)C)c([C@H](C)C(=O)NCC(F)(F)F)cc1F)C(C1CC1)C1CC1` [Compound 165, N-((S)-1,1-dicyclopropyl-3-((5-((dimethylamino)methyl)-2-fluoro-4-((S)-1-oxo-1-((2,2,2-trifluoroethyl)amino)propan-2-yl)phenyl)amino)-3-oxopropan-2-yl)-1-isopropyl-1H-pyrazole-5-carboxamide] was tested, and the IC50 was 100 to 1000 nM.

With `COc1cc(NC(=O)[C@@H](NC(=O)c2ccnn2C(C)C)C(C2CC2)C2CC2)c(F)cc1C(C)C(=O)N(C)CC(F)(F)F` (some centres unmarked) [Compound 176] the IC50 was < 100 nM.

`CC(C)n1nccc1C(=O)N[C@H](C(=O)Nc1ccc([C@H](C)C(=O)N2CCOC2C(F)(F)F)cc1F)C(C1CC1)C1CC1` (single isomer, unassigned) [Compound 48] gave an IC50 of 100 to 1000 nM.

For `CCn1nccc1C(=O)N[C@H](C(=O)Nc1cc(OC(F)(F)F)c(C(C)C(=O)NCC(F)(F)F)cc1F)C(C1CC1)C1CC1` (some centres unmarked) [Compound 259], the IC50 was < 100 nM.

Compound `CC(C)n1nccc1C(=O)N[C@H](C(=O)Nc1ccc([C@H](C)C(=O)N(CC(F)(F)F)CC(F)(F)F)cc1F)C(C1CC1)C1CC1` [Compound 42, N-((S)-1-((4-((S)-1-(bis(2,2,2-trifluoroethyl)amino)-1-oxopropan-2-yl)-2-fluorophenyl)amino)-3,3-dicyclopropyl-1-oxopropan-2-yl)-1-isopropyl-1H-pyrazole-5-carboxamide] has an IC50 of 100 to 1000 nM.

For `CC(C)n1nccc1C(=O)N[C@H](C(=O)Nc1ccc([C@H](C)C(=O)N2C[C@@H](F)C[C@@H]2C(F)(F)F)cc1F)C(C1CC1)C1CC1` [Compound 59, N-((S)-1,1-dicyclopropyl-3-((2-fluoro-4-((S)-1-((2R^4S)-4-fluoro-2-(trifluoromethyl)pyrrolidin-1-yl)-1-oxopropan-2-yl)phenyl)amino)-3-oxopropan-2-yl)-1-isopropyl-1H-pyrazole-5-carboxamide], the IC50 was > 1000 nM.

In the case of `CC(C)n1nccc1C(=O)N[C@H](C(=O)Nc1ccc([C@H](C)C(=O)N2CCOCC2C(F)(F)F)cc1F)C(C1CC1)C1CC1` (single isomer, unassigned) [Compound 18], the IC50 is reported as < 100 nM.

For `COc1cc(NC(=O)[C@@H](NC(=O)c2ccnn2C(C)C)C(C2CC2)C2CC2)c(F)cc1C(C)C(=O)N1CC(O)CC1C(F)(F)F` (single isomer, unassigned) [Compound 212], the IC50 was < 100 nM.

`CC(C)n1nccc1C(=O)N[C@H](C(=O)Nc1ccc([C@H](C)C(=O)NC(CO)C(F)(F)F)cc1F)C(C1CC1)C1CC1` (single isomer, unassigned) [Compound 29] was tested, and the IC50 was < 100 nM.

In the case of `CC(C)n1nccc1C(=O)N[C@H](C(=O)Nc1ccc([C@H](C)C(=O)NC(CO)C(F)(F)F)cc1F)C(C1CC1)C1CC1` (single isomer, unassigned) [Compound 28], the IC50 is reported as 100 to 1000 nM.

With `Cc1cc(NC(=O)[C@@H](NC(=O)c2ccnn2C(C)C)C(C2CC2)C2CC2)c(F)cc1[C@H](C)C(=O)NCC(F)(F)F` (single isomer, unassigned) [Compound 98] the IC50 was < 100 nM.

`CC(C)n1nccc1C(=O)N[C@H](C(=O)Nc1ccc([C@H](C)C(=O)NCCF)cc1F)C(C1CC1)C1CC1` [Compound 34, N-((S)-1,1-dicyclopropyl-3-((2-fluoro-4-((S)-1-((2-fluoroethyl)amino)-1-oxopropan-2-yl)phenyl)amino)-3-oxopropan-2-yl)-1-isopropyl-1H-pyrazole-5-carboxamide] showed an IC50 of 100 to 1000 nM.

Compound `Cc1cc(NC(=O)[C@@H](NC(=O)c2ccnn2C(C)C)C(C2CC2)C2CC2)c(F)cc1C(C)C(=O)N1CC(O)CC1C(F)(F)F` (single isomer, unassigned) [Compound 200] has an IC50 of 100 to 1000 nM.

`CC(C(=O)NCC(F)(F)F)c1cc(F)c(NC(=O)[C@@H](NC(=O)c2ccnn2C(C)C)C(C2CC2)C2CC2)cc1N1CCOCC1` (some centres unmarked) [Compound 188] was tested, and the IC50 was < 100 nM.

With `CC(C(=O)NC1CCC1(F)F)c1cc(F)c(NC(=O)[C@@H](NC(=O)c2ccnn2C(C)C)C(C2CC2)C2CC2)cc1C(F)(F)F` (single isomer, unassigned) [Compound 231] the IC50 was 100 to 1000 nM.

`CCn1nccc1C(=O)N[C@H](C(=O)Nc1cc(C(F)(F)F)c(C(C)C(=O)N2CC(F)(F)C(F)(F)C2)cc1F)C(C1CC1)C1CC1` (some centres unmarked) [Compound 242] showed an IC50 of 100 to 1000 nM.

For `CC(C)n1nccc1C(=O)N[C@H](C(=O)Nc1ccc([C@H](C)C(=O)NC2(C(F)(F)F)CN(C(=O)OC(C)(C)C)C2)cc1F)C(C1CC1)C1CC1` [Compound 46, tert-butyl 3-((S)-2-(4-((S)-3,3-dicyclopropyl-2-(1-isopropyl-1H-pyrazole-5-carboxamido)propanamido)-3-fluorophenyl)propanamido)-3-(trifluoromethyl)azetidine-1-carboxylate], the IC50 was > 1000 nM.

With `CCn1nccc1C(=O)N[C@H](C(=O)Nc1ccc([C@H](C)C(=O)N(CC2CC2)CC(F)(F)F)cc1F)C1CCCCCC1` [Compound 8, N-((S)-1-cycloheptyl-2-((4-((S)-1-((cyclopropylmethyl)(2,2,2-trifluoroethyl)amino)-1-oxopropan-2-yl)-2-fluorophenyl)amino)-2-oxoethyl)-1-ethyl-1H-pyrazole-5-carboxamide] the IC50 was < 100 nM.

`CCn1nccc1C(=O)N[C@H](C(=O)Nc1cc(OC(F)(F)F)c(C(C)C(=O)N(C)CC(F)(F)F)cc1F)C(C1CC1)C1CC1` (some centres unmarked) [Compound 245] showed an IC50 of 100 to 1000 nM.

`COC(=O)Nc1cc(NC(=O)[C@@H](NC(=O)c2ccnn2C(C)C)C(C2CC2)C2CC2)c(F)cc1C(C)C(=O)NCC(F)(F)F` (single isomer, unassigned) [Compound 161] was tested, and the IC50 was < 100 nM.

For `CC(C)n1nccc1C(=O)N[C@H](C(=O)Nc1ccc([C@H](C)C(=O)NCC(F)(F)CO)cc1F)C(C1CC1)C1CC1` [Compound 65, N-((S)-1,1-dicyclopropyl-3-((4-((S)-1-((2,2-difluoro-3-hydroxypropyl)amino)-1-oxopropan-2-yl)-2-fluorophenyl)amino)-3-oxopropan-2-yl)-1-isopropyl-1H-pyrazole-5-carboxamide], the IC50 was > 1000 nM.

With `CCN(CC(F)(F)F)C(=O)C(C)c1ccc(NC(=O)[C@@H](NC(=O)c2ccnn2CC)C2CCCCCC2)c(F)c1` (single isomer, unassigned) [Compound 70] the IC50 was 100 to 1000 nM.

`CC(C(=O)N1CCC(C(N)=O)C1C(F)(F)F)c1cc(F)c(NC(=O)[C@@H](NC(=O)c2ccnn2C(C)C)C(C2CC2)C2CC2)cc1C(F)(F)F` (some centres unmarked) [Compound 228] showed an IC50 of 100 to 1000 nM.

`CCC(C(=O)NCC(F)(F)F)c1ccc(NC(=O)[C@@H](NC(=O)c2ccnn2C(C)C)C(C2CC2)C2CC2)c(F)c1` (single isomer, unassigned) [Compound 150] was tested, and the IC50 was > 1000 nM.

In the case of `CCn1nccc1C(=O)N[C@H](C(=O)Nc1ccc([C@H](C)C(=O)N(C)CC(F)(F)F)cc1F)C(C1CC1)C1CC1` [Compound 68, N-((S)-1,1-dicyclopropyl-3-((2-fluoro-4-((S)-1-(methyl(2,2,2-trifluoroethyl)amino)-1-oxopropan-2-yl)phenyl)amino)-3-oxopropan-2-yl)-1-ethyl-1H-pyrazole-5-carboxamide], the IC50 is reported as < 100 nM.

`CC(C)n1nccc1C(=O)N[C@H](C(=O)Nc1ccc([C@H](C)C(=O)NC2CNCC2(F)F)cc1F)C(C1CC1)C1CC1` (single isomer, unassigned) [Compound 134] gave an IC50 of 100 to 1000 nM.

In the case of `CCn1nccc1C(=O)N[C@H](C(=O)Nc1ccc(CC(=O)N(C)C2(C(F)(F)F)CC2)cc1F)C1CCCCCC1` [Compound 5, (S)-N-(1-cycloheptyl-2-((2-fluoro-4-(2-(methyl(1-(trifluoromethyl)cyclopropyl)amino)-2-oxoethyl)phenyl)amino)-2-oxoethyl)-1-ethyl-1H-pyrazole-5-carboxamide], the IC50 is reported as > 1000 nM.
